In US20240401154A1, “SYNTHESIS AND PREPARATION OF ULTRA-LOW VISCOSITY AND HIGH MAGNETIC SUSCEPTIBILITY MAGNETIC IONIC LIQUIDS” (priority 2023, published 2024):

Experiment: Magnetic properties by SQUID magnetometer
Assay type: physicochemical
Details: applied magnetic field H=20 kOe; Curie-Weiss fit
Method: Magnetic properties were analyzed using a magnetic susceptibility balance (MSB, Sherwood Scientific, Cambridge, UK) and a Quantum Design Superconducting Quantum Interference Device (SQUID) magnetometer (MPMS XL-7). The magnetic properties of transition metal MILs were further studied using a SQUID magnetometer to confirm their paramagnetic nature as well as if any magnetic transition occurs in the samples.
The magnetic properties of transition metal MILs were further studied using a SQUID magnetometer to confirm their paramagnetic nature as well as if any magnetic transition occurs in the samples.
The calculated μeff of 5.21μB for the [Ni(C6-DGE)6][Ni(hfacac)3]2 MIL (FIG. 12A) from SQUID matches quite well with the theoretical μtheo value (5.31μB, TABLE 1) and also with that obtained from MSB measurements (5.48μB).

## CCCCCCOC(=O)COCC(=O)OCCCCCC.CCCCCCOC(=O)COCC(=O)OCCCCCC.CCCCCCOC(=O)COCC(=O)OCCCCCC.CCCCCCOC(=O)COCC(=O)OCCCCCC.CCCCCCOC(=O)COCC(=O)OCCCCCC.CCCCCCOC(=O)COCC(=O)OCCCCCC.O=C(C=C([O-])C(F)(F)F)C(F)(F)F.O=C(C=C([O-])C(F)(F)F)C(F)(F)F.O=C(C=C([O-])C(F)(F)F)C(F)(F)F.O=C(C=C([O-])C(F)(F)F)C(F)(F)F.O=C(C=C([O-])C(F)(F)F)C(F)(F)F.O=C(C=C([O-])C(F)(F)F)C(F)(F)F.[Ni+2].[Ni+2].[Ni+2] [MIL 2]
  μeff from SQUID: 5.21 μB
